Reference: US8933079B2, “Pyridone and pyridazinone derivatives as anti-obesity agents” (Boehringer Ingelheim International GmbH, priority 2012, dated 2015)

target: hMCH-1R (Homo sapiens (Human), UniProt Q99705); assay: MCH-1 receptor binding test (125I-MCH binding to hMCH-1R transfected cell membranes); conditions: competition with 100 pM 125I-MCH, membranes of CHO/Galpha16 cells stably transfected with hMCH-1R
Method: Res Commun. […] After the incubation the reaction is filtered using a cell harvester through 0.5% PEI treated fibreglass filters (GF/B, Unifilter Packard). The membrane-bound radioactivity retained on the filter is then determined after the addition of scintillator substance (Packard Microscint 20) in a measuring device (TopCount of Packard). […] The analysis of the concentration binding curve is carried out on the assumption of one receptor binding site.

hMCH-1R, sequence (Q99705 whole entry): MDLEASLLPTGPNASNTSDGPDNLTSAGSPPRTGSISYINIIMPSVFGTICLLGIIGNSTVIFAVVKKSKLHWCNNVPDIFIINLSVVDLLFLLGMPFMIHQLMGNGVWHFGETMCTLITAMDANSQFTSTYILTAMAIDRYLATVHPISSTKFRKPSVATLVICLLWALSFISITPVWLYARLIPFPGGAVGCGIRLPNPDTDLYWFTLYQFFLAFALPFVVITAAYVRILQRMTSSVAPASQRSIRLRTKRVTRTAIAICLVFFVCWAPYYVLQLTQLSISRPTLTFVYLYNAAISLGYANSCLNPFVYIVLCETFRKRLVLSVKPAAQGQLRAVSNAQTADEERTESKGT

| IC50 [nM] | Compound |
| --- | --- |
| 17 | Cc1cc(CN2CCCC2)ccc1C(=O)Cn1ccc(OCc2ccc(Br)cn2)cc1=O [Example 4.8, 4-(5-Bromo-pyridin-2-ylmethoxy)-1-[2-(2-methyl-4-pyrrolidin-1-ylmethyl-phenyl)-2-oxo-ethyl]-1H-pyridin-2-one] |
| 20 | Cc1cc(CN2CC[C@@H](O)C2)ccc1C(=O)Cn1ccc(OCc2ccc(Br)cn2)cc1=O [Example 4.9, (R)-4-(5-Bromo-pyridin-2-ylmethoxy)-1-{2-[4-(3-hydroxy-pyrrolidin-1-ylmethyl)-2-methyl-phenyl]-2-oxo-ethyl}-1H-pyridin-2-one] |
| 53 | CCN1CCN(Cc2ccc(C(=O)Cn3ccc(OCc4ccc(Br)cn4)cc3=O)c(C)c2)CC1 [Example 4.10] |
| 59 | Cc1cc(CN2CCOCC2)ccc1C(=O)Cn1ccc(OCc2ccc(Br)cn2)cc1=O [Example 4.11] |
| 23 | Cc1cc(CN2CCC[C@@H](O)C2)ccc1C(=O)Cn1ccc(OCc2ccc(Br)cn2)cc1=O [Example 4.12, (R)-4-(5-Bromo-pyridin-2-ylmethoxy)-1-{2-[4-(3-hydroxy-piperidin-1-ylmethyl)-2-methyl-phenyl]-2-oxo-ethyl}-1H-pyridin-2-one] |
| 26 | CNCc1ccc(C(=O)Cn2ccc(OCc3ccc(Br)cn3)cc2=O)c(C)c1 [Example 4.13, 4-(5-Bromo-pyridin-2-ylmethoxy)-1-[2-(2-methyl-4-methylaminomethyl-phenyl)-2-oxo-ethyl]-1H-pyridin-2-one] |
| 72 | Cc1cc(CN2CCN(C)CC2)ccc1C(=O)Cn1ccc(OCc2ccc(Br)cn2)cc1=O [Example 4.14] |
| 18 | Cc1cc(CN(C)C(C)C)ccc1C(=O)Cn1ccc(OCc2ccc(Br)cn2)cc1=O [Example 4.17, 4-(5-Bromo-pyridin-2-ylmethoxy)-1-(2-{4-[(isopropyl-methyl-amino)-methyl]-2-methyl-phenyl}-2-oxo-ethyl)-1H-pyridin-2-one] |
| 19 | CCN(C)Cc1ccc(C(=O)Cn2ccc(OCc3ccc(Br)cn3)cc2=O)c(C)c1 [Example 4.18, 4-(5-Bromo-pyridin-2-ylmethoxy)-1-(2-{4-[(ethyl-methyl-amino)-methyl]-2-methyl-phenyl}-2-oxo-ethyl)-1H-pyridin-2-one] |
| 19 | CCN(CC)Cc1ccc(C(=O)Cn2ccc(OCc3ccc(Br)cn3)cc2=O)c(C)c1 [Example 4.20, 4-(5-Bromo-pyridin-2-ylmethoxy)-1-[2-(4-diethylaminomethyl-2-methyl-phenyl)-2-oxo-ethyl]-1H-pyridin-2-one] |
| 18 | Cc1cc(CN2CCC2)ccc1C(=O)Cn1ccc(OCc2ccc(Br)cn2)cc1=O [Example 4.21, 1-[2-(4-Azetidin-1-ylmethyl-2-methyl-phenyl)-2-oxo-ethyl]-4-(5-bromo-pyridin-2-ylmethoxy)-1H-pyridin-2-one] |
| 14 | Cc1cc(CN2CCC[C@@H](O)C2)ccc1C(=O)Cn1ncc(OCc2ccccc2)cc1=O [Example 5.1, (R)-5-Benzyloxy-2-{2-[4-(3-hydroxy-piperidin-1-ylmethyl)-2-methyl-phenyl]-2-oxo-ethyl}-2H-pyridazin-3-one] |
| 11 | Cc1cc(CN2CCC[C@H]2CO)ccc1C(=O)Cn1ncc(OCc2ccccc2)cc1=O [Example 5.3, (S)-5-Benzyloxy-2-{2-[4-(2-hydroxymethyl-pyrrolidin-1-ylmethyl)-2-methyl-phenyl]-2-oxo-ethyl}-2H-pyridazin-3-one] |
| 12 | Cc1cc(CN2CC[C@@H](O)C2)ccc1C(=O)Cn1ncc(OCc2ccccc2)cc1=O [Example 5.4, (R)-5-Benzyloxy-2-{2-[4-(3-hydroxy-pyrrolidin-1-ylmethyl)-2-methyl-phenyl]-2-oxo-ethyl}-2H-pyridazin-3-one] |

| Compound | IC50 [nM] |
| --- | --- |
| Cc1cc(CNC(C)C)ccc1C(=O)Cn1ccc(OCc2ccc(Br)cn2)cc1=O [Example 4.15, 4-(5-Bromo-pyridin-2-ylmethoxy)-1-{2-[4-(isopropylamino-methyl)-2-methyl-phenyl]-2-oxo-ethyl}-1H-pyridin-2-one] | 18 |
| Cc1cc(CN2CCCCC2)ccc1C(=O)Cn1ccc(OCc2ccc(Br)cn2)cc1=O [Example 4.16] | 12 |
